Excerpt: As used herein, the term “solubility” in regard to water solubility includes cases where the sample completely dissolves in deionized water to form a homogeneous mixture, and cases where the sample is completely emulsified. As used herein, “completely” means that no mass of the sample remains in the deionized water.

SMILES	Water solubility
CCCCCCCCCCCCOC(=O)CCCCCCCCCCC [2-18]	<0.05 g
CCCCCCCCCCCCCC(=O)OCCCCCCCCCCCC [2-19]	<0.05 g
